Values of other authors in patent publication US20130226549A1, “STRUCTURE-BASED FRAGMENT HOPPING FOR LEAD OPTIMIZATION AND IMPROVEMENT IN SYNTHETIC ACCESSIBILITY” (priority 2012, published 2013).
Read-outs that look alike come from different tables or passages of the source.

Biological target: T1, human 5-LOX (Homo sapiens, UniProt P09917)
T1 sequence (P09917 1-674): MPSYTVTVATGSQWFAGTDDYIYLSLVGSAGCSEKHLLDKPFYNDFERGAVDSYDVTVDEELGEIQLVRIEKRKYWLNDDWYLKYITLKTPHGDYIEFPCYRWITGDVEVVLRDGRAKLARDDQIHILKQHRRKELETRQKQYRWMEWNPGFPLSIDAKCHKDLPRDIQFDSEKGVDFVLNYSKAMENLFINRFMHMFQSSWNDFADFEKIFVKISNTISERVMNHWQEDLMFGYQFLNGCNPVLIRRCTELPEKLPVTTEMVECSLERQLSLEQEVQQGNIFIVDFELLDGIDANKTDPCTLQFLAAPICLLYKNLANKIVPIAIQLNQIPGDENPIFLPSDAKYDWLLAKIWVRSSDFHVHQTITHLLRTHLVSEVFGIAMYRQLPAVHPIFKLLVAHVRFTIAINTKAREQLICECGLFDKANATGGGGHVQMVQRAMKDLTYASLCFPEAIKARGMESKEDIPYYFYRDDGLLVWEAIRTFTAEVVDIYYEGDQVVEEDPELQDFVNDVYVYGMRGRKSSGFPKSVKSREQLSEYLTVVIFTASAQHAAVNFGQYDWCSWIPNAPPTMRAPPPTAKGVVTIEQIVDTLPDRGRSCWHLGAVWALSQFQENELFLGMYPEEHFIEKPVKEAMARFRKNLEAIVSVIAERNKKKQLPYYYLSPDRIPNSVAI
Details: from the literature

[1] = 5-LOX, LeadOp+R example, read-out: Inhibition IC50

IC50 (human 5-LOX, LeadOp example, read-out: IC50) [nM]	IC50 [1] [nM]	Compound
64		O=c1cc(-c2ccc(F)cc2)c2ccc(CCc3ncc(C(O)(C(F)(F)F)C(F)(F)F)s3)cc2o1 [compound H]
	7 ± 2	CCC(O)(c1cnc(Sc2ccc3c(-c4ccc(F)cc4)cc(=O)oc3c2)s1)C(F)(F)F (stereo not shown) [rB1]
	64 ± 3	O=c1cc(-c2ccc(F)cc2)c2ccc(CCc3ncc(C(O)(C(F)(F)F)C(F)(F)F)s3)cc2o1 [rB3]

Compound	IC50 (human 5-LOX, LeadOp example, read-out: IC50) [nM]	IC50 [1] [nM]
CN(Cc1ccc2c(-c3ccc(F)cc3)cc(=O)oc2c1)c1ncc(C(O)(C(F)(F)F)C(F)(F)F)s1 [rB, reference compound]		145
